# Active and inactive are the calls of the source.
# Legend:
# [1] = biological target: T1, Corticotropin-releasing factor receptor 2/Corticotropin-releasing factor-binding protein (Homo sapiens, UniProt P24387+Q13324); assay: activators of CRF receptor 2 with binding protein – uHTS hits, confirmation (AID 602473); type: functional; conditions: read-out: EC50_Mean
# T1 sequence (Q13324 whole entry): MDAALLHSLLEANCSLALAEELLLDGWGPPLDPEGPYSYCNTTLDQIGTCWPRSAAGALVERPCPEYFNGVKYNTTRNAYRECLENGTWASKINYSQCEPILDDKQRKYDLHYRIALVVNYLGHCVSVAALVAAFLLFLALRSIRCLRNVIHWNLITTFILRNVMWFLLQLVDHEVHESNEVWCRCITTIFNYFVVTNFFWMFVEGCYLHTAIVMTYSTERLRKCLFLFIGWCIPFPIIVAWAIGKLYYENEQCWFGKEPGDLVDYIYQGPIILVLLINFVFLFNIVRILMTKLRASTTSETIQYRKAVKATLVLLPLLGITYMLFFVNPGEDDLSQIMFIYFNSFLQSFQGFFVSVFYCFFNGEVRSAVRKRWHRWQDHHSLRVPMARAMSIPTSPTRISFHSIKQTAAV
# T1 sequence (P24387 whole entry): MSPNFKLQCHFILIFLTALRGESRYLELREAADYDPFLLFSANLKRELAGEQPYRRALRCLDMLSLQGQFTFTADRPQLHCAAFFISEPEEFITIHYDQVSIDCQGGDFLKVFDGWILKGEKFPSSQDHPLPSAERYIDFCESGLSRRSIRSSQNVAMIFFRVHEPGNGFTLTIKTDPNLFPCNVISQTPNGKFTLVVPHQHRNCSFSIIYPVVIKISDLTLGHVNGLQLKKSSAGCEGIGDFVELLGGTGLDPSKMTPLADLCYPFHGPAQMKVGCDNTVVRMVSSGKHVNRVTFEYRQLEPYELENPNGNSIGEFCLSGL
# [2] = biological target: T1, Corticotropin-releasing factor receptor 2/Corticotropin-releasing factor-binding protein; assay: Dose Response confirmation of uHTS hits for small molecule antagonists of the CRF-binding protein and CRF-R2 receptor complex.; type: functional; conditions: read-out: IC50_Mean
# [3] = blockers of CRF-binding protein–CRF-R2 complex – cell-based, uHTS hits, 384-well, dose response (AID 651639); type: functional, Homo sapiens; conditions: read-out: IC50_Mean
# Beta-lactamase [4] = biological target: Beta-lactamase (Pseudomonas aeruginosa, UniProt Q79MP6);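 further: biochemical dose-response test of metallo-beta-lactamase enzyme inhibition, read out by epi-absorbance; purified recombinant IMP-1 metallo-beta-lactamase with nitrocefin as substrate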
# Beta-lactamase (Pseudomonas aeruginosa, UniProt Q79MP6), sequence (Q79MP6 whole entry): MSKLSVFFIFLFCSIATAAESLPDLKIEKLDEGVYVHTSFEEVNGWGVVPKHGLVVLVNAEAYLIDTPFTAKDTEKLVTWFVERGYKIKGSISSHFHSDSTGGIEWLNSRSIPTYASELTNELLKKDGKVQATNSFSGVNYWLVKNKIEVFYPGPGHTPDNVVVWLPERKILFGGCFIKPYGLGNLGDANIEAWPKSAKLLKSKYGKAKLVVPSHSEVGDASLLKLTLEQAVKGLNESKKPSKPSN
# Protein S100-A4 = Protein S100-A4 (Homo sapiens, UniProt P26447); assay: human S100A4 peptide interaction inhibition curves – biochemical, fluorescence polarization, cherry-picked hits, dose response (AID 687001); type: functional
# Protein S100-A4, sequence (P26447 whole entry): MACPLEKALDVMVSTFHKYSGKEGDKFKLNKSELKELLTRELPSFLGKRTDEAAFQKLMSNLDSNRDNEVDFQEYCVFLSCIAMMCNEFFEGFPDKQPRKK
# ORF 73 = biological target: T2, ORF 73 (Human herpesvirus 8, UniProt O40947); assay: KSHV LANA DNA-binding disruption – biochemical, fluorescence polarization, cherry-picked samples, dose response (AID 504725); parameters: species or system Human gammaherpesvirus 8;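 further: fluorescence polarization of a labeled DNA duplex reporting LANA DNA binding; potency is for inhibitors that block LANA binding to the DNA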
# T2 sequence (O40947 whole entry): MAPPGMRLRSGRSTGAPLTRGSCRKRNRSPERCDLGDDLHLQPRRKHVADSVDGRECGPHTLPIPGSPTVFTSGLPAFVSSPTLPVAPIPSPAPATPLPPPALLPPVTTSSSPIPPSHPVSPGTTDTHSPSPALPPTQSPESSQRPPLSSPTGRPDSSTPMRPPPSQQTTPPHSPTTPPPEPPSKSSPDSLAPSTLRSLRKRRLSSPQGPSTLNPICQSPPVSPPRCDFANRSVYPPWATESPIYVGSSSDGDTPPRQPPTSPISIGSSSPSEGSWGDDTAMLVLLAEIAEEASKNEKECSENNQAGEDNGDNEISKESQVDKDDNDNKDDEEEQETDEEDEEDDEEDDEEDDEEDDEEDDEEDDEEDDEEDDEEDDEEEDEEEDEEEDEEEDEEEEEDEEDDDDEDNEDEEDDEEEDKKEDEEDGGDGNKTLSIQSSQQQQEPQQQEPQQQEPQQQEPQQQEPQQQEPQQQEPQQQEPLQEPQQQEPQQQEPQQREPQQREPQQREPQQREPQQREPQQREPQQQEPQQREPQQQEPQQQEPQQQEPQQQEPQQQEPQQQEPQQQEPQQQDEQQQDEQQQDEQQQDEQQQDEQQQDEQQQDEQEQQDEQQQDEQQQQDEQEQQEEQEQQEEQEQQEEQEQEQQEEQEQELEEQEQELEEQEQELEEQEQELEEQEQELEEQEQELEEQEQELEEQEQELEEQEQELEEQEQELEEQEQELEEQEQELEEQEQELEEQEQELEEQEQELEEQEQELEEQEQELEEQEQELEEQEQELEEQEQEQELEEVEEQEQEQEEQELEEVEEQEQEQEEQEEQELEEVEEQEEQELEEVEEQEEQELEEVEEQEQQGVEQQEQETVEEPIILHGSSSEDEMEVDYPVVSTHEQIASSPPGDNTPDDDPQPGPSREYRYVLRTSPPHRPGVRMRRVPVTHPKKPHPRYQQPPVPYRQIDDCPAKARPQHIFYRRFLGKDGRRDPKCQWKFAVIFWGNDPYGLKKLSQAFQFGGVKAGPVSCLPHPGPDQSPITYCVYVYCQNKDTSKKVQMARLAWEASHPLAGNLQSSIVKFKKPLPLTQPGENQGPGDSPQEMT
# Beta-lactamase [5] = biological target: Beta-lactamase (Salmonella choleraesuis (strain SC-B67), UniProt Q5J463)
# Beta-lactamase (Salmonella choleraesuis (strain SC-B67), UniProt Q5J463), sequence (Q5J463 whole entry): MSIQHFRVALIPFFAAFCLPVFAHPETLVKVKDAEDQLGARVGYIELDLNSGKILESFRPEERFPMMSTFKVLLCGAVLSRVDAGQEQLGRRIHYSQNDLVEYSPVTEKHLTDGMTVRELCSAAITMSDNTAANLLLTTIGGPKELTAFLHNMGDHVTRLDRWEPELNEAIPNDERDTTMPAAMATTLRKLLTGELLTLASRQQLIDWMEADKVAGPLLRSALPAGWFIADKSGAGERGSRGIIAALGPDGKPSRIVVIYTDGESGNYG
# [6] = biological target: T3, Calpain-2 catalytic subunit (Sus scrofa, UniProt P43367); assay: m-calpain protease blockers, concentration series – biochemical, fluorogenic peptide substrate, dose response (AID 1420); type: functional
# T3 sequence (P43367 whole entry): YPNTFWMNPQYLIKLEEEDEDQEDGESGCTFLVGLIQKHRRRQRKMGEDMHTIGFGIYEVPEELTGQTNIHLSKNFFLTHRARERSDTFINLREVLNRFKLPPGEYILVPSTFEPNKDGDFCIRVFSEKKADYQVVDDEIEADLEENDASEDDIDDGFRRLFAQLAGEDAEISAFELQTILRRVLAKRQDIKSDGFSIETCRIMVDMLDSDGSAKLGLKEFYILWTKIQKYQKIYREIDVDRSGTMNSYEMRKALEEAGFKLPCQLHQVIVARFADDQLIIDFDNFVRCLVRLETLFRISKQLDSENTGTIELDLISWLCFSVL
# [7] = Counterscreen for […] of the human trace amine associated receptor 1 (TAAR1): Fluorescence-based cell-based high throughput dose response assay to identify nonselective Ga16 agonists.; type: functional
# [8] = biological target: T4, Heat shock factor protein 1 (Mus musculus, UniProt P38532); assay: decrease of HSF1-responsive luciferase luminescence – cell-based, NIH3T3, dose retest, confirmation (AID 2382); type: functional;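 further: NIH3T3 fibroblasts with HSF1-driven luciferase reporter stressed by proteasome inhibitor MG132; luminescence from HSF1-driven luciferase expression after 8 hours of MG132 stress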
# T4 sequence (P38532 whole entry): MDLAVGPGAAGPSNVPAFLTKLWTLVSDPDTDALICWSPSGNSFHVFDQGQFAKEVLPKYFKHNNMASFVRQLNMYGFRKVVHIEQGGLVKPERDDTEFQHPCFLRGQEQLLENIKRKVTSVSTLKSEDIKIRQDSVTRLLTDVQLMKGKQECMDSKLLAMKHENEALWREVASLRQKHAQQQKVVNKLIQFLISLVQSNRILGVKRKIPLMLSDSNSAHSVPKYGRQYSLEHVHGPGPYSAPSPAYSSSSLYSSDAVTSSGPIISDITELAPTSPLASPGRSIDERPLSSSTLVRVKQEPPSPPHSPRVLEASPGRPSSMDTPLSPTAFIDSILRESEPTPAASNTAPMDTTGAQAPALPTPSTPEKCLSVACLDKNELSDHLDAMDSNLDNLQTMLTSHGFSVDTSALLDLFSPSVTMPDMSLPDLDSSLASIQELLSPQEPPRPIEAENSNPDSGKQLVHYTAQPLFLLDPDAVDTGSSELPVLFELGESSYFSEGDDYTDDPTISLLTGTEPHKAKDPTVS
# [9] = Counterscreen for antagonists of the human trace amine associated receptor 1 (hTAAR1): Fluorescence-based cell-based high throughput dose response assay to identify nonselective Ga16 antagonists.; type: functional
# [10] = biological target: SWI/SNF-related matrix-associated actin-dependent regulator of chromatin subfamily A member 2 (Homo sapiens, UniProt P51531); assay: Luminescence-based cell-based high throughput dose response assay to identify activators of the function of SWI/SNF related, matrix associated, actin dependent regulator of chromatin, subfamily a, member 2 (SMARCA2, BRM).; type: functional
# SWI/SNF-related matrix-associated actin-dependent regulator of chromatin subfamily A member 2, sequence (P51531 whole entry): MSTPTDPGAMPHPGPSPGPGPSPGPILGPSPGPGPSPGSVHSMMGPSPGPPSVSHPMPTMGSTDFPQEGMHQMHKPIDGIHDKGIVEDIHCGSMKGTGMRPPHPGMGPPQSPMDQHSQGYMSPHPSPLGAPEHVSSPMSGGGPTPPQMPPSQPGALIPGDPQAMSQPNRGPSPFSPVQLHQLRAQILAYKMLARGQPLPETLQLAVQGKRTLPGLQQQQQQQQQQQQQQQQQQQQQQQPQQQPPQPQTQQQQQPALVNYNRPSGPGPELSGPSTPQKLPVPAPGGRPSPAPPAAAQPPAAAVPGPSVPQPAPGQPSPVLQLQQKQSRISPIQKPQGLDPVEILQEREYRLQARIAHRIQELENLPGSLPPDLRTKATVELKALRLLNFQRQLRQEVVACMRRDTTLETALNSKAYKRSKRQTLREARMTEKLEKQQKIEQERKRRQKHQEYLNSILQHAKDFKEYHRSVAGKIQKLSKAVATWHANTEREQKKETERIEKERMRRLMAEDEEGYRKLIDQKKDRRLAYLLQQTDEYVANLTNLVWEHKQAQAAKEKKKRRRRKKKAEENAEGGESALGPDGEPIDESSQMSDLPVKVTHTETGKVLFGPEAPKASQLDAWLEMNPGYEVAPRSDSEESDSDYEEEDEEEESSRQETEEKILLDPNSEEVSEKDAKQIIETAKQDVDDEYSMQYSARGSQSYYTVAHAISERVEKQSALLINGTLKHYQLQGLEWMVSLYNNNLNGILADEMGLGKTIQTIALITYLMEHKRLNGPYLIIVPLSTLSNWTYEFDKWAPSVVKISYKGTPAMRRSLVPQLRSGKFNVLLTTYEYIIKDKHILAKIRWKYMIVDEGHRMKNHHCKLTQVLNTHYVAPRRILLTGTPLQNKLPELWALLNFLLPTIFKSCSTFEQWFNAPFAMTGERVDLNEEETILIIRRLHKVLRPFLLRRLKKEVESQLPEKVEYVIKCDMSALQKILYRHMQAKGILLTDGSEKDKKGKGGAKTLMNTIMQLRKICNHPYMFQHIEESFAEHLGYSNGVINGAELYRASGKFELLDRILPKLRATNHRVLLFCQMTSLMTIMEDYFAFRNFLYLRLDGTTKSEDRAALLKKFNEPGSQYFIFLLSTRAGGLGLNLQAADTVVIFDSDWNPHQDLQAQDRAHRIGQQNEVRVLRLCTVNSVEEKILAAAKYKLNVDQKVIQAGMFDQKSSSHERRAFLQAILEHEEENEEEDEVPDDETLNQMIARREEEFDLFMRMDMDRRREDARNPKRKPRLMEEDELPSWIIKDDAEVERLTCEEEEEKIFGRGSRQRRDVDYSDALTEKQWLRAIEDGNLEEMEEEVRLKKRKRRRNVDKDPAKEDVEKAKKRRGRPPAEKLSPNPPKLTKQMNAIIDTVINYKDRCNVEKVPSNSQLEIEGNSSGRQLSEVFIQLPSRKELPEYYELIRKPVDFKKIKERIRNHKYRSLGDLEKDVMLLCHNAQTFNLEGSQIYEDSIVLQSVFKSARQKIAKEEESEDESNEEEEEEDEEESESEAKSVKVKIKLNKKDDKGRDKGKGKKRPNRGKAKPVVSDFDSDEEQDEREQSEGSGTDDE
# [11] = rise of 4N DNA cells, HeLa – IC50, dose response (AID 1117351); type: functional, cell-based
# [12] = cytotoxicity toward HT-29 cells – cell-based, CellTiter-Glo luminescence, IC50, dose response (AID 1117330); type: functional
# [13] = reduction of Shn3 3'UTR-driven luciferase in osteoblasts – cell-based, Clone20 osteoblasts, firefly luciferase, cherry-picked, dose response (AID 624132); type: functional;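 further: firefly luciferase luminescence from reporter carrying the Shn3 3'UTR in osteoblasts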
# [14] = SNU-C1 cell viability reduction, dose response, CellTiter-Glo luminescence (AID 1117323); type: functional, cell-based
# [15] = Counterscreen for activators of the function of SWI/SNF related, matrix associated, actin dependent regulator of chromatin, subfamily a, member 2 (SMARCA2, BRM): Luminescence-based cell-based high throughput dose response assay to identify non-selective compounds using the VP16 reporter assay.; type: functional
# [16] = loss of viability in HepG2 cells – cell-based, CellTiter-Glo, cherry-picked, cytotoxicity control for Shn3 inhibitor project, dose response (AID 624134); type: functional
# [17] = rise of 2N DNA cells, HeLa – IC50, dose response (AID 1117349); type: functional, cell-based
# [18] = Reduced DLD-1 viability, concentration-response, CellTiter-Glo luminescence (AID 1117352); type: functional
smiles,measurement,setting,value
CCOC(=O)Oc1ccc2c(=O)c(Oc3cccc(C)c3)coc2c1,EC50,[1],> 53 µM (inactive)
same,IC50,[2],0.61 µM (active)
same,IC50,[3],> 20 µM (inactive)
CCOC(=O)C1CCCN(c2ccc([N+](=O)[O-])c3nonc23)C1 (stereo not given),IC50,Beta-lactamase [4],37.1 µM (inactive)
same,AC50,Protein S100-A4,0.505 µM (active)
same,AC50,ORF 73,4.35 µM (active)
same,IC50,Beta-lactamase [5],10.5 µM (inactive)
same,IC50,[6],19 µM (not active)
Cc1coc(NC(=O)CSc2nc(-c3ccc(Cl)cc3)cc(C(F)(F)F)c2C#N)n1,EC50,[7],> 29.9 µM (inactive)
same,EC50,[8],> 195 µM (not active)
same,IC50,[9],> 29.9 µM (inactive)
CC(C)n1c(/C=C/[C@@H](O)C[C@@H](O)CC(=O)O)c(-c2ccc(F)cc2)c2ccccc21 [FLUVASTATIN SODIUM],EC50,[10],> 91.1 µM (inactive)
same,IC50,[11],> 10 µM (inactive)
same,IC50,[12],> 20 µM (inactive)
same,AC50,[13],2.4 µM (active)
same,IC50,[14],> 20 µM (inactive)
same,EC50,[15],> 91.1 µM (inactive)
same,AC50,[16],> 70 µM (inactive)
same,IC50,[17],> 10 µM (inactive)
same,IC50,[18],> 20 µM (inactive)

# Reference: ChEMBL document CHEMBL1201862, “PubChem BioAssay data set” (2004)
